These results are taken from patent US9181214B2 (RHIZEN PHARMACEUTICALS SA, priority 2011, dated 2015).

This test addresses T1, human GPR119 (Homo sapiens, UniProt Q8TDV5).
T1 construct: expressed in transfected cells; host or cells: HEK293 (transient transfection, Lipofectamine 2000)
T1 sequence (Q8TDV5 1-335): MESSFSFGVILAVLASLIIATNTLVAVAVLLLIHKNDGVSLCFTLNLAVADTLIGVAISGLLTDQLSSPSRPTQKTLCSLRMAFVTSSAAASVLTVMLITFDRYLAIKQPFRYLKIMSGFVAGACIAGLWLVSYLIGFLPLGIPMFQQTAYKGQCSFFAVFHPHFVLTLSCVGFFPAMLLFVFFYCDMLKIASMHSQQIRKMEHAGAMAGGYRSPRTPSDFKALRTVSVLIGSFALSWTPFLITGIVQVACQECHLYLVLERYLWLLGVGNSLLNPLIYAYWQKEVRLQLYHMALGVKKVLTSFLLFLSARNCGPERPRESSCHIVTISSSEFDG
In words: In vitro cyclic AMP assay (Cisbio HTRF) in HEK293 cells transfected with human GPR119. In kind it is cell-based. The note with it: cAMP, Table I; for activation at 10 µM: 1 h, % Induction @ 10 μM; for EC50: Emax varies between 65 to 80%. The protocol: A. In Vitro Cyclic AMP Assay:
cAMP measurements were done using a Cisbio dynamic 2 HTRF kit (Cisbio, Bedford, Mass.) according to the manufacturer's protocol. Briefly, HEK293 cells (0.2×10^6/well) were plated in a 24 well plate and incubated overnight at 37° C. Cells were transfected with either empty vector DNA or human GPR119 expression plasmid DNA using Lipofectamine 2000 (Invitrogen). After 24 h, transfected cells were harvested, counted and plated at 1000 cells/5 ul in a black 384 welled small volume plate. Cells were treated with desired concentrations of compounds and incubated for 60 min at room temperature. Lysis buffer containing cAMP-d2 and cryptate conjugate were added and incubated for 1 h. HRTF ratio was measured on a microplate reader (BMG Labtech., Germany) at an excitation wavelength of 337 nm and emission wavelengths of 665 and 620 nm with an integration time of 400 μsec. Data were analyzed using Graphpad Prism (Graphpad software; San Diego Calif.) for EC50 determination.
The results are as given in Table I as % Induction@ 10 μM, Table II as % Induction@ 10 μM and EC 50 in nM

Molecules are shown by their SMILES.

`CCc1cnc(N2CCC(c3nc4cc(-c5ccc(S(C)(=O)=O)cc5F)ccc4[nH]3)CC2)nc1` [EXAMPLE-1, 2-[1-(5-Ethylpyrimidin-2-yl)piperidin-4-yl]-5-[2-fluoro-4-(methylsulfonyl)phenyl]-1H-benzo[d]imidazole]: the activation at 10 µM is 55.4%.
Still for that read-out and setting: the same measure for `CC(C)(C)OC(=O)N1CCC(c2nc3cc(-c4ccc(S(C)(=O)=O)cc4F)ccc3[nH]2)CC1` [EXAMPLE-2, Tert-butyl 4-{5-[2-fluoro-4-(methylsulfonyl)phenyl]-1H-benzo[d]imidazol-2-yl}piperidine-1-carboxylate]: 35.8%; for `CCc1cnc(N2CCC(c3nc4cc(-c5ccc(S(C)(=O)=O)cc5F)ccc4o3)CC2)nc1` [EXAMPLE-3, 2-[1-(5-ethylpyrimidin-2-yl)piperidin-4-yl]-5-[2-fluoro-4-(methylsulfonyl)phenyl]benzo[d]oxazole]: 35.4%.
`CC(C)(C)OC(=O)N1CCC(c2nc3cc(-c4ccc(S(C)(=O)=O)cc4F)ccc3o2)CC1` [EXAMPLE-4, tert-butyl 4-{5-[2-fluoro-4-(methylsulfonyl)phenyl]benzo[d]oxazol-2-yl}piperidine-1-carboxylate] had an activation at 10 µM of 74.2% and an EC50 of 50 to 100 nM.
Compound `Cn1c(C2CCN(C(=O)OC(C)(C)C)CC2)nc2cc(-c3ccc(S(C)(=O)=O)cc3F)ccc21` [EXAMPLE-5, Tert-butyl 4-{5-[2-fluoro-4-(methylsulfonyl)phenyl]-1-methyl-1H-benzo[d]imidazol-2-yl}piperidine-1-carboxylate] registered an activation at 10 µM of 41%.
In turn, `CC(C)(C)OC(=O)N1CCC(c2nc3ccc(-c4ccc(S(C)(=O)=O)cc4F)cc3o2)CC1` [EXAMPLE-6, Tert-butyl 4-{6-[2-fluoro-4-(methylsulfonyl)phenyl]benzo[d]oxazol-2-yl}piperidine-1-carboxylate] gave an activation at 10 µM of 73.2% and an EC50 of 25 to 50 nM.
`CC(C)OC(=O)N1CCC(c2nc3cc(-c4ccc(S(C)(=O)=O)cc4F)ccc3o2)CC1` [EXAMPLE-7, Isopropyl 4-{5-[2-fluoro-4-(methylsulfonyl)phenyl]benzo[d]oxazol-2-yl}piperidine-1-carboxylate] gave an activation at 10 µM of 62.6% and an EC50 of 50 to 100 nM.
Regarding `CC(C)(C)OC(=O)N1CCC(c2nc3cc(-c4ccc(S(C)(=O)=O)cc4F)cc(F)c3o2)CC1` [EXAMPLE-8, Tert-butyl 4-{7-fluoro-5-[2-fluoro-4-(methylsulfonyl)phenyl]benzo[d]oxazol-2-yl}piperidine-1-carboxylate], the activation at 10 µM turned out to be 66.7% and the EC50 fell in the range of 25 to 50 nM.
`CC(C)(C)OC(=O)N1CCC(c2nc3cc(-c4ccc(C#N)cc4)ccc3o2)CC1` [EXAMPLE-9, Tert-butyl 4-[5-(4-cyanophenyl)benzo[d]oxazol-2-yl]piperidine-1-carboxylate] gave an activation at 10 µM of 46.8%.
`CC(C)(C)OC(=O)N1CCC(c2nc3cc(-c4ccc(S(C)(=O)=O)c(F)c4)ccc3o2)CC1` [EXAMPLE-10, Tert-butyl 4-{5-[3-fluoro-4-(methylsulfonyl)phenyl]benzo[d]oxazol-2-yl}piperidine-1-carboxylate] yielded an activation at 10 µM of 59.2% and an EC50 of 500 to 1000 nM.
`CC(C)(C)OC(=O)N1CCC(c2nc3cc(-c4ccc(-n5cnnn5)cc4)ccc3o2)CC1` [EXAMPLE-11, Tert-butyl 4-{5-[4-(1H-tetrazol-1-yl)phenyl]benzo[d]oxazol-2-yl}piperidine-1-carboxylate]: the activation at 10 µM turned out to be 70.1%.
In the case of `CC(C)(C)OC(=O)N1CCC(c2nc3cc(-c4ccc(C(F)(F)F)cc4)ccc3o2)CC1` [EXAMPLE-13, Tert-butyl 4-{5-[4-(trifluoromethyl)phenyl]benzo[d]oxazol-2-yl}piperidine-1-carboxylate], the activation at 10 µM amounted to 68.2% and the EC50 lay in the range of 100 to 500 nM.
`CC(C)OC(=O)N1CCC(c2nc3cc(-c4ccc(-n5cnnn5)cc4F)ccc3o2)CC1` [EXAMPLE-14, Isopropyl 4-{5-[2-fluoro-4-(1H-tetrazol-1-yl)phenyl]benzo[d]oxazol-2-yl}piperidine-1-carboxylate] displayed an activation at 10 µM of 68.6% and a 50% effective concentration (EC50) of 25 to 50 nM.
`CC(C)(C)OC(=O)N1CCC(c2nc3cc(-c4ccc(-n5cnnn5)c(F)c4)ccc3o2)CC1` [EXAMPLE-15, Tert-butyl 4-{5-[3-fluoro-4-(1H-tetrazol-1-yl)phenyl]benzo[d]oxazol-2-yl}piperidine-1-carboxylate] came in with an activation at 10 µM of 77.7% and an EC50 of 100 to 500 nM.
For the compound `CCc1cnc(N2CCC(c3nc4cc(-c5ccc(-n6cnnn6)cc5F)ccc4o3)CC2)nc1` [EXAMPLE-16, 2-[1-(5-ethylpyrimidin-2-yl)piperidin-4-yl]-5-[2-fluoro-4-(1H-tetrazol-1-yl)phenyl]benzo[d]oxazole], the activation at 10 µM was 43.7%.
The same measure, in the same setting: the same measure for `CC(C)(C)OC(=O)N1CCC(c2nc3cc(-c4ccc(C#N)c(F)c4)ccc3o2)CC1` [EXAMPLE-17, Tert-butyl 4-[5-(4-cyano-3-fluorophenyl)benzo[d]oxazol-2-yl]piperidine-1-carboxylate]: 41.5%.
As to `CC(C)OC(=O)N1CCC(c2nc3cc(-c4ccc(-n5cnnn5)c(F)c4)ccc3o2)CC1` [EXAMPLE-18, Isopropyl 4-{5-[3-fluoro-4-(1H-tetrazol-1-yl)phenyl]benzo[d]oxazol-2-yl}piperidine-1-carboxylate], the activation at 10 µM stood at 36.4%.
Turning to `CC(C)(C)OC(=O)N1CCC(c2nc3cc(-c4ccc(-c5nnn[nH]5)c(F)c4)ccc3o2)CC1` [EXAMPLE-19, Tert-butyl 4-{5-[3-fluoro-4-(1H-tetrazol-5-yl)phenyl]benzo[d]oxazol-2-yl}piperidine-1-carboxylate], the activation at 10 µM came out at 37.2%.
`CC(C)(C)OC(=O)N1CCC(c2nc3cc(-c4ccc(C(N)=O)c(Cl)c4)ccc3o2)CC1` [EXAMPLE-20, Tert-butyl 4-[5-(4-carbamoyl-3-chlorophenyl)benzo[d]oxazol-2-yl]piperidine-1-carboxylate] displayed an activation at 10 µM of 73.9% and an EC50 of 25 to 50 nM.
With `CC(C)(C)OC(=O)N1CCC(c2nc3cc(-c4ccc(C(N)=O)c(F)c4)ccc3o2)CC1` [EXAMPLE-21, Tert-butyl 4-[5-(4-carbamoyl-3-fluorophenyl)benzo[d]oxazol-2-yl]piperidine-1-carboxylate], the activation at 10 µM came out at 59% and the concentration giving a half-maximal response (EC50) lay within 50 to 100 nM.
Take `CC(C)Oc1ccc(-c2ccc3oc(C4CCN(C(=O)OC(C)(C)C)CC4)nc3c2)cc1F` [EXAMPLE-22, Tert-butyl 4-[5-(3-fluoro-4-isopropoxyphenyl)benzo[d]oxazol-2-yl]piperidine-1-carboxylate]: the activation at 10 µM was 64.5%.
`O=C(OC1CCC1)N1CCC(c2nc3cc(-c4ccc(-n5cnnn5)cc4F)ccc3o2)CC1` [EXAMPLE-23, Cyclobutyl 4-{5-[2-fluoro-4-(1H-tetrazol-1-yl)phenyl]benzo[d]oxazol-2-yl}piperidine-1-carboxylate] displayed an activation at 10 µM of 69.6% and an EC50 of 25 to 50 nM.
For `CCC(C)OC(=O)N1CCC(c2nc3cc(-c4ccc(-n5cnnn5)cc4F)ccc3o2)CC1` (centres unmarked) [EXAMPLE-24, Sec-butyl 4-{5-[2-fluoro-4-(1H-tetrazol-1-yl)phenyl]benzo[d]oxazol-2-yl}piperidine-1-carboxylate], in that order: 67.5% and ≤ 25 nM.
